From patent publication US5652124A (priority 1989, dated 1997)
Like-named read-outs stand apart in the source and are kept apart here.

Legend:
[1] = cited from earlier work
[2] = Improvement of water-solubility: standing of saccharide-transfer reaction solution at 4° C.; assay type: physicochemical; conditions: 4° C. for 2 days
[3] = system: α-glucosidase (EC 3.2.1.20) derived from pig liver; assay: Stability against hydrolysis by α-glucosidase; assay type: in vitro ADME
Excerpt: Acid hydrolysis of the α-glucosyl hesperidin led to the formation of 1 mole of rhamnose and 2 moles of D-glucose per 1 mole hesperidin, while an α-glucosidase, obtained by the extraction from pig liver and partial purification, hydrolyzed α-glucosyl hesperidin into hesperidin and D-glucose.

dd mice = assay: Acute toxicity test; assay type: in vivo; conditions: oral, 7 week-old dd mice
Excerpt: As the result, no mouse died when administered with up to […] of the specimen, and higher dose was difficult.

Which results are given for `COc1ccc([C@@H]2CC(=O)c3c(O)cc(O[C@@H]4O[C@H](CO[C@@H]5O[C@@H](C)[C@H](O)[C@@H](O)[C@H]5O)[C@@H](O)[C@H](O)[C@H]4O)cc3O2)cc1O` [hesperidin]?
solubility in water ([1]; ambient temperature): about 0.002 w/v %; solubility in water (weight per volume of water) ([1]; ambient temperature): about 1 g in 50 liters of water; solubility in water (in words) [1]: hardly soluble; appearance of solution after standing [2]: white turbidity

Which “hydrolysis by α-glucosidase into hesperidin and D-glucose” value ([3]; α-glucosidase from pig liver) does the source give for `COc1ccc(C2CC(=O)c3c(O)cc(O[C@@H]4O[C@H](CO[C@@H]5O[C@@H](C)[C@H](O)[C@@H](O)[C@H]5O)[C@@H](O[C@H]5O[C@H](CO)[C@@H](O)[C@H](O)[C@H]5O)[C@H](O)[C@H]4O)cc3O2)cc1O` (stereo partly drawn) [α-glucosyl hesperidin] here?
The value was “hydrolyzed”.

Which “toxicity (conclusion in words)” value (dd mice) does the source give for `COc1ccc(C2CC(=O)c3c(O)cc(O[C@@H]4O[C@H](CO[C@@H]5O[C@@H](C)[C@H](O)[C@@H](O)[C@H]5O)[C@@H](O[C@H]5O[C@H](CO)[C@@H](O)[C@H](O)[C@H]5O)[C@H](O)[C@H]4O)cc3O2)cc1O` (stereo partly drawn) [α-glycosyl hesperidin specimen [II]] here?
Its value is “extremely low”.

With α-glycosyl hesperidin as the compound, how does the “hydrolysis by α-glucosidase into hesperidin and D-glucose” value [3] read?
The value was “hydrolyzable”.
